Data from US20200062719A1, “Application of Imidazopyridine Derivatives in Regenerative Medicine” (University of Heidelberg, priority 2018, published 2020).

The molecules below were run on Oct4 (assay: Luciferase reporter assay in NCCIT-Oct4 cells). Conditions: 100 nM, NCCIT-Oct4 cells.
Type: cell-based, human

Compound	Oct4 inducing activity as compared to the activity of O4I3 (101)
Cc1ccc2nc(-c3ccc(F)cc3)cn2c1 [Compound 102, 2-(4-fluorophenyl)-6-methyl-imidazo[1,2-a]pyridine]	increased the activity
Cc1ccc2nc(-c3ccc(Cl)cc3)cn2c1 [Compound 103, 2-(4-chlorophenyl)-6-methyl-imidazo[1,2-a]pyridine]	increased the activity
Cc1ccc2nc(-c3ccc(Br)cc3)cn2c1 [Compound 104, 2-(4-bromophenyl)-6-methyl-imidazo[1,2-a]pyridine]	increased the activity
Cc1ccc2nc(-c3ccc([N+](=O)[O-])cc3)cn2c1 [Compound 105, 6-methyl-2-(4-nitrophenyl)imidazo[1,2-a]pyridine]	significantly reduced the induction
COc1ccc(-c2cn3cc(C)ccc3n2)cc1 [Compound 106, 2-(4-methoxyphenyl)-6-methyl-imidazo[1,2-a]pyridine]	significantly reduced the induction
Cc1ccc2nc(-c3ccc(O)cc3)cn2c1 [Compound 107, 4-(6-methylimidazo[1,2-a]pyridin-2-yl)phenol]	significantly reduced the induction
Cc1ccc2nc(-c3ccc(C#N)cc3)cn2c1 [Compound 108, 4-(6-methylimidazo[1,2-a]pyridin-2-yl)benzonitrile]	significantly reduced the induction
Cc1ccc2nc(-c3ccccc3)cn2c1 [Compound 109, 6-methyl-2-phenyl-imidazo[1,2-a]pyridine]	not affected

Each molecule was assayed on Oct4 (assay: Luciferase reporter assay in NCCIT-Oct4 cells). Conditions: histone demethylase inhibitors, 48 h.
Type: cell-based, human
Protocol: The ability of the lead compound to induce Oct4 at translational level was tested in a luciferase reporter cell line in human embryonic carcinoma NCCIT cells driven by Oct4 response elements (NCCIT-Oct4). The compound lead to a nearly 10-fold induction of Oct4 at 10 nM compared to untreated cells (FIG. 1B). Consequently, the lead compound was named “Oct4 inducing compound 3” (O4I3).
Luciferase reporter assay was performed using Beatle Juice Kit (PJK, Germany) according to the manufacturer's instruction. NCCIT-Oct and NCCIT-Nanog reporter cells were plated into a 24-well plate (100,000 cells/well) for 24 h. Cells were treated with compounds as indicated and harvested with luciferase lysis buffer (25 mM Tris phosphate buffer pH=7.8, 4 mM EGTA, 1% Triton X-100, 10% glycerol and 2 mM fresh DTT, filtered through 0.45 μm sterile filter) at 37° C. for 15 min. The protein concentration was determined by Bradford assay (Sigma, Germany). 100 μL reaction mixture containing luciferin and ATP was added to 20 μL cell lysis in a white plate (Gibco, Germany), incubated for 5 min and measured by a luminometer plate-reader. The activity was determined as percent luminous intensity of treated cells over control cells from at least five-independent experiments.

Compound	induction of OCT4 expression in NCCIT-OCT4 reporter cell line
CC(C)c1c(-c2ccccc2)[nH]c2c(C#N)cnn2c1=O [CPI-455]	3 fold
CCOC(=O)CCNc1cc(N2CCc3ccccc3CC2)nc(-c2ccccn2)n1 [GSK-J4]	not
CN(C)NC(=O)CCC(=O)O [daminozide]	not
